Results taken from US7074743B1, “Herbicidal composition comprising 4-iodo-2-[3-(4-methoxy-6-methyl-1,3,5-triazin-2-yl)ureidosulfonyl]benzoic esters” (priority 1995, dated 2006).

Key:
Format in all cases: in vivo
Phalaris canariensis = assay: Herbicidal action on PHACA, visual scoring vs untreated, post-emergence 2-4 leaf stage (greenhouse / field trials)
Procedure: (§1) The examples given below were performed in the greenhouse and, in some cases, in field trials.
(§2) The herbicides, or combinations, were applied in cereals after the weeds had emerged naturally using plot sprayers. After application, the results, such as damage to the crop plants and effect on broad-leaved weeds/grass weeds were assessed by means of visual scoring. The herbicidal action was assessed qualitatively and quantitatively by comparing untreated and treated plots on the basis of the effect on plant growth and the development of chloroses and necroses down to the complete destruction of the weeds (0–100%). The application was effected when the crop plants and weeds were in the 2–4 leaf stage. The test was evaluated approximately 4 weeks after application.
(§3) In the greenhouse experiments, the crop plants and broadleaved weeds/grass weeds were grown in No. 13 pots and treated in the 2–4 leaf stage. The pots were subsequently placed in the greenhouse under good growth conditions (temperature, atmospheric humidity, water supply).
(§4) The assessments were carried out similarly to those in the field trials, i.e. visual scoring of the treated plants in comparison with untreated control variants. These assessments were carried out 3 weeks after applying the test preparations and their combinations. The experiments had been set up in two replications.
(§5) To assess the combination effects, the activities of the individual components were added and compared with the activity of the mixtures in equal doses. It was frequently observed that the efficacies of the combinations exceeded the total of the individual activities.
(§6) In cases with less clear effects, the expected value was calculated using Colby's formula and compared with the empirically determined result. The calculated efficacy of a combination which is expected in theory is determined is using S.R. Colby's formula: “Calculation of synergistic and antagonistic responses of herbicide combinations”, Weeds 15 (1967), pages 20 to 22.
(§7) [formula] where • X=% damage caused by herbicide A at a rate of ×kg a.i./ha; • Y=% damage caused by herbicide B at a rate of y kg a.i./ha; • Z=% damage caused by a further herbicide C at a rate of z kg a.i./ha; • E=expected value, i.e. expected damage caused by herbicides A+B (or A+B+C) at x+y (or x+y+z) kg a.i./ha.
(§8) Synergistic effects were assumed to be when the empirical value exceeded the expected value. In the case of combinations with individual components with the same active substances, comparisons via the total formula were also possible.

Apera spica venti = assay: Herbicidal action on APESV, visual scoring vs untreated, post-emergence 2-4 leaf stage; conditions: Table 1
Procedure: as §1, §2, §3, §4, §5, §6, §7, §8

Triticum aestivum = assay: Damage to crop plant TRZAW, visual scoring vs untreated
Procedure: as §1, §2, §3, §4

Gallium aparine = assay: Herbicidal action on GALAP, visual scoring vs untreated, post-emergence 2-4 leaf stage; conditions: Table 11
Procedure: as §1, §2, §3, §4, §5, §6, §7, §8

Avena fatua = assay: Herbicidal action on AVEFA, visual scoring vs untreated, post-emergence 2-4 leaf stage; conditions: Table 11
Procedure: as §1, §2, §3, §4, §5, §6, §7, §8

Mercurialis annua = assay: Herbicidal action on MERAN, visual scoring vs untreated, post-emergence 2-4 leaf stage; conditions: Table 11
Procedure: as §1, §2, §3, §4, §5, §6, §7, §8

Lolium multiflorum = assay: Herbicidal action on LOLMU, visual scoring vs untreated, post-emergence 2-4 leaf stage
Procedure: as §1, §2, §3, §4, §5, §6, §7, §8

Echinochloa crus galli = assay: Herbicidal action on ECHCR, visual scoring vs untreated, post-emergence 2-4 leaf stage; conditions: Table 4
Procedure: as §1, §2, §3, §4, §5, §6, §7, §8

Zea mays = assay: Damage to crop plant ZEAMA, visual scoring vs untreated; conditions: Table 4
Procedure: as §1, §2, §3, §4

Fallopia convolvulus = assay: Herbicidal action on FALCO, visual scoring vs untreated, post-emergence 2-4 leaf stage; conditions: Table 5
Procedure: as §1, §2, §3, §4, §5, §6, §7, §8

Centaurea cyanus = assay: Herbicidal action on CENCY, visual scoring vs untreated, post-emergence 2-4 leaf stage; conditions: Table 6
Procedure: as §1, §2, §3, §4, §5, §6, §7, §8

Secale cereale = assay: Damage to crop plant SECCW, visual scoring vs untreated; conditions: Table 6
Procedure: as §1, §2, §3, §4

COC(=O)C(C)Oc1ccc(Oc2ccc(Cl)cc2Cl)cc1 (racemic) [B3), diclofop-methyl]
PHACA % control (Phalaris canariensis; Table 1, 225 g of a.i./ha): 0%
PHACA % control (Phalaris canariensis; Table 1, 450 g of a.i./ha): 0%
PHACA % control (Phalaris canariensis; Table 1, 900 g of a.i./ha): 0%
APESV % control (Apera spica venti; 225 g of a.i./ha): 0%
APESV % control (Apera spica venti; 450 g of a.i./ha): 0%
APESV % control (Apera spica venti; 900 g of a.i./ha): 8%
TRZAW % damage (Triticum aestivum; Table 1, 225 g of a.i./ha): 0%
TRZAW % damage (Triticum aestivum; Table 1, 450 g of a.i./ha): 0%
TRZAW % damage (Triticum aestivum; Table 1, 900 g of a.i./ha): 0%

CP(=O)(O)CC[C@@H](N)C(=O)O (racemic) [B49), 4-[hydroxy(methyl)phosphinoyl]-DL-homoalanine]
GALAP % control (Gallium aparine; 150 g of a.i./ha): 55%
GALAP % control (Gallium aparine; 300 g of a.i./ha): 73%
GALAP % control (Gallium aparine; 450 g of a.i./ha): 85%
AVEFA % control (Avena fatua; 150 g of a.i./ha): 60%
AVEFA % control (Avena fatua; 300 g of a.i./ha): 70%
AVEFA % control (Avena fatua; 450 g of a.i./ha): 80%
MERAN % control (Mercurialis annua; 150 g of a.i./ha): 65%
MERAN % control (Mercurialis annua; 300 g of a.i./ha): 78%
MERAN % control (Mercurialis annua; 450 g of a.i./ha): 90%

CC(C)c1ccc(NC(=O)N(C)C)cc1 [B2), 3-(4-isopropylphenyl)-1,1-dimethylurea]
PHACA % control (Phalaris canariensis; Table 3, 375 g of a.i./ha): 0%
PHACA % control (Phalaris canariensis; Table 3, 750 g of a.i./ha): 0%
PHACA % control (Phalaris canariensis; Table 3, 1500 g of a.i./ha): 50%
TRZAW % damage (Triticum aestivum; in vivo): 0%
LOLMU % control (Lolium multiflorum; Table 3, 375 g of a.i./ha): 0%
LOLMU % control (Lolium multiflorum; Table 3, 750 g of a.i./ha): 0%
LOLMU % control (Lolium multiflorum; Table 3, 1500 g of a.i./ha): 0%

COc1cc(OC)nc(NC(=O)NS(=O)(=O)c2ncccc2C(=O)N(C)C)n1 [B13), 1-(4,6-dimethoxypyrimidin-2-yl)-3-(3-dimethylcarbamoyl-2-pyridylsulfonyl)urea]
ECHCR % control (Echinochloa crus galli; 15 g of a.i./ha): 0%
ECHCR % control (Echinochloa crus galli; 30 g of a.i./ha): 73%
ECHCR % control (Echinochloa crus galli; 60 g of a.i./ha): 75%
ZEAMA % damage (Zea mays; 15 g of a.i./ha): 0%
ZEAMA % damage (Zea mays; 30 g of a.i./ha): 0%
ZEAMA % damage (Zea mays; 60 g of a.i./ha): 2%

CCS(=O)(=O)c1cccnc1S(=O)(=O)NC(=O)Nc1nc(OC)cc(OC)n1 [B14), 1-(4,6-dimethoxypyrimidin-2-yl)-3-(3-ethylsulfonyl-2-pyridylsulfonyl) urea]
ECHCR % control (Echinochloa crus galli; 5 g of a.i./ha): 15%
ECHCR % control (Echinochloa crus galli; 10 g of a.i./ha): 60%
ECHCR % control (Echinochloa crus galli; 20 g of a.i./ha): 85%

Cc1cc(Cl)ccc1O[C@H](C)C(=O)O [B16), (R)-2-(4-chloro-o-tolyloxy)propionic acid]
TRZAW % damage (Triticum aestivum; Table 5, 125 g of a.i./ha): 0%
TRZAW % damage (Triticum aestivum; Table 5, 250 g of a.i./ha): 0%
TRZAW % damage (Triticum aestivum; Table 5, 500 g of a.i./ha): 0%
TRZAW % damage (Triticum aestivum; Table 5, 1000 g of a.i./ha): 0%
FALCO % control (Fallopia convolvulus; 125 g of a.i./ha): 0%
FALCO % control (Fallopia convolvulus; 250 g of a.i./ha): 15%
FALCO % control (Fallopia convolvulus; 500 g of a.i./ha): 55%
FALCO % control (Fallopia convolvulus; 1000 g of a.i./ha): 68%
CENCY % control (Centaurea cyanus; 600 g of a.i./ha): 30%
CENCY % control (Centaurea cyanus; 2500 g of a.i./ha): 70%
SECCW % damage (Secale cereale; 600 g of a.i./ha): 0%
SECCW % damage (Secale cereale; 2500 g of a.i./ha): 0%

Cc1cc(Cl)ccc1OCC(=O)O [B17), (4-chloro-2-methylphenoxy) acetic acid]
TRZAW % damage (Triticum aestivum; Table 5, 250 g of a.i./ha): 0%
FALCO % control (Fallopia convolvulus; 250 g of a.i./ha): 0%
FALCO % control (Fallopia convolvulus; 500 g of a.i./ha): 68%
FALCO % control (Fallopia convolvulus; 1000 g of a.i./ha): 75%

COc1c(Cl)ccc(Cl)c1C(=O)O [B20), 3,6-dichloro-o-anisic acid]
LOLMU % control (Lolium multiflorum; Table 5, 50 g of a.i./ha): 5%
LOLMU % control (Lolium multiflorum; Table 5, 100 g of a.i./ha): 10%
LOLMU % control (Lolium multiflorum; Table 5, 200 g of a.i./ha): 18%
LOLMU % control (Lolium multiflorum; Table 5, 400 g of a.i./ha): 40%

Nc1c(Cl)c(F)nc(OCC(=O)O)c1Cl [B21), 4-amino-3,5-dichloro-6-fluoro-2-pyridyloxyacetic acid]
FALCO % control (Fallopia convolvulus; 50 g of a.i./ha): 73%
FALCO % control (Fallopia convolvulus; 100 g of a.i./ha): 80%
FALCO % control (Fallopia convolvulus; 200 g of a.i./ha): 95%
